Tested on: ES cells
Assay: DNA microarray analysis of ES cells
Format: cell-based, mouse
Details: ES cells, 24 hours
Experimental: The DNA microarray analysis was used to determine whether the gene expression profiles in various pathways in cells will be affected when the cells were cultured by a BP-containing medium.
An experimental group medium (BP10 or BP 40), a LIF-containing medium (without BP), and a control group medium (without BP) were used respectively in a 6-well culture dish to culture ES cells with an initial density of 1×10^4 per well for 24 hours. Next, performing total RNA extraction and the obtained RNA was labeled with Cy3. Samples were hybridized to Agilent Mouse G3 Whole Genome Oligo 86×60K microarrays (Agilent) according to the manufacturer's instructions. Arrays were scanned with a Microarray Scanner System and data was analyzed by using a GeneSpring GX software (Agilent).
According to the related research at present, the Jak-Stat signaling pathway is the most relevant in terms of stem cell self-renewal and pluripotency maintenance.

[1] = BP10 medium (about 10 μg BP/ml)

Compound: CCCC=C1OC(=O)c2ccccc21 [BP, n-butylidenephthalide]
- Amino acid metabolism: % of genes regulated [1]: 4.3%
- Amino acid metabolism: D, number of down-regulated genes [1]: 1
- Amino acid metabolism: I, number of up-regulated genes [1]: 0
- Amino acid metabolism: No. (regulated genes/genes of function) [1]: 1/23
- Apoptosis: % of genes regulated [1]: 11.7%
- Apoptosis: D, number of down-regulated genes [1]: 8
- Apoptosis: I, number of up-regulated genes [1]: 3
- Apoptosis: No. (regulated genes/genes of function) [1]: 11/94
- Calcium signaling pathway: % of genes regulated [1]: 21.9%
- Calcium signaling pathway: D, number of down-regulated genes [1]: 28
- Calcium signaling pathway: I, number of up-regulated genes [1]: 4
- Calcium signaling pathway: No. (regulated genes/genes of pathway) [1]: 32/146
- Cell adhesion molecules: % of genes regulated [1]: 22%
- Cell adhesion molecules: D, number of down-regulated genes [1]: 20
- Cell adhesion molecules: I, number of up-regulated genes [1]: 13
- Cell adhesion molecules: No. (regulated genes/genes of function) [1]: 33/150
- Cell communication: % of genes regulated [1]: 21.7%
- Cell communication: D, number of down-regulated genes [1]: 17
- Cell communication: I, number of up-regulated genes [1]: 3
- Cell communication: No. (regulated genes/genes of function) [1]: 20/92
- Cell cycle: % of genes regulated [1]: 2.5%
- Cell cycle: D, number of down-regulated genes [1]: 4
- Cell cycle: I, number of up-regulated genes [1]: 0
- Cell cycle: No. (regulated genes/genes of function) [1]: 4/163
- ECM-receptor interaction: % of genes regulated [1]: 28.4%
- ECM-receptor interaction: D, number of down-regulated genes [1]: 18
- ECM-receptor interaction: I, number of up-regulated genes [1]: 3
- ECM-receptor interaction: No. (regulated genes/genes of pathway) [1]: 21/74
- Insulin signaling pathway: % of genes regulated [1]: 9.8%
- Insulin signaling pathway: D, number of down-regulated genes [1]: 7
- Insulin signaling pathway: I, number of up-regulated genes [1]: 3
- Insulin signaling pathway: No. (regulated genes/genes of pathway) [1]: 10/102
- JAK-STAT signaling pathway: % of genes regulated [1]: 27.9%
- JAK-STAT signaling pathway: D, number of down-regulated genes [1]: 30
- JAK-STAT signaling pathway: I, number of up-regulated genes [1]: 9
- JAK-STAT signaling pathway: No. (regulated genes/genes of pathway) [1]: 39/140
- Lipid metabolism: % of genes regulated [1]: 16.5%
- Lipid metabolism: D, number of down-regulated genes [1]: 15
- Lipid metabolism: I, number of up-regulated genes [1]: 3
- Lipid metabolism: No. (regulated genes/genes of function) [1]: 18/109
- MAPK signaling: % of genes regulated [1]: 10.6%
- MAPK signaling: D, number of down-regulated genes [1]: 17
- MAPK signaling: I, number of up-regulated genes [1]: 7
- MAPK signaling: No. (regulated genes/genes of pathway) [1]: 24/227
- PPAR signaling pathway: % of genes regulated [1]: 37.8%
- PPAR signaling pathway: D, number of down-regulated genes [1]: 14
- PPAR signaling pathway: I, number of up-regulated genes [1]: 14
- PPAR signaling pathway: No. (regulated genes/genes of pathway) [1]: 28/74
- TGF-β signaling pathway: % of genes regulated [1]: 11.1%
- TGF-β signaling pathway: D, number of down-regulated genes [1]: 2
- TGF-β signaling pathway: I, number of up-regulated genes [1]: 3
- TGF-β signaling pathway: No. (regulated genes/genes of pathway) [1]: 5/45
- VEGF signaling pathway: % of genes regulated [1]: 6.5%
- VEGF signaling pathway: D, number of down-regulated genes [1]: 0
- VEGF signaling pathway: I, number of up-regulated genes [1]: 2
- VEGF signaling pathway: No. (regulated genes/genes of pathway) [1]: 2/31
- Wnt signaling pathway: % of genes regulated [1]: 10.6%
- Wnt signaling pathway: D, number of down-regulated genes [1]: 5
- Wnt signaling pathway: I, number of up-regulated genes [1]: 2
- Wnt signaling pathway: No. (regulated genes/genes of pathway) [1]: 7/66
- focal adhesion: % of genes regulated [1]: 11%
- focal adhesion: D, number of down-regulated genes [1]: 16
- focal adhesion: I, number of up-regulated genes [1]: 3
- focal adhesion: No. (regulated genes/genes of function) [1]: 19/173
- tight junction: % of genes regulated [1]: 13.6%
- tight junction: D, number of down-regulated genes [1]: 7
- tight junction: I, number of up-regulated genes [1]: 2
- tight junction: No. (regulated genes/genes of function) [1]: 9/66
- Amino acid metabolism: % of genes regulated (BP40 medium (about 40 μg BP/ml)): 8.7%
